Experimental data reported in ChEMBL document CHEMBL3991948, “Rab7 GTPase inhibitors and related methods of treatment” (2014).
The source made the active and inactive calls. No cut-off for these calls is given here.

How the values were obtained:
[1] = target: Ras-related protein Rab-7a (Homo sapiens) (UniProt P51149); experiment: Displacement of BODIPY-GTP from nucleotide binding site of wild-type GST-tagged Rab7 GTPase (unknown origin) expressed in Escherichia coli BL21(DE3) after 2 hrs by flow cytometry relative to untreated control
[2] = target: Ras-related protein Rab-7a (Homo sapiens) (UniProt P51149); experiment: Displacement of BODIPY-GTP from nucleotide binding site of wild-type GST-tagged Rab7 GTPase (unknown origin) expressed in Escherichia coli BL21(DE3) in EDTA buffer assessed as residual activity after 2 hrs by flow cytometry
[3] = target: T1, Integrin alpha-4/beta-1 (Homo sapiens) (UniProt P05556+P13612); experiment: Inhibition of FITC-LDV peptide binding to VLA4 in human U937 deltaST cells at 10 to 100 uM by FACScan flow cytometry; type: cell-based
[4] = Chemical stability of the compound after 72 hrs in presence of 1 to 2.4 mg L-glutathione by LCMS analysis; type: physicochemical
[5] = Cytotoxicity against human U937 cells assessed as cell viability at 100 uM after 24 hrs by cell counting method (reference value: 94%); type: cell-based, U-937; conditions: read-out: Activity
[6] = target: T1, Integrin alpha-4/beta-1 (Homo sapiens); experiment: Inhibition of FITC-LDV peptide binding to VLA4 in human U937 deltaST cells at 30 uM by FACScan flow cytometry; type: cell-based
[7] = target: Ras-related protein Rab-7a (Homo sapiens) (UniProt P51149); experiment: Displacement of BODIPY-GTP from nucleotide binding site of wild-type GST-tagged Rab7 GTPase (unknown origin) expressed in Escherichia coli BL21(DE3) in Mg buffer assessed as residual activity after 2 hrs by flow cytometry
[8] = target: T1, Integrin alpha-4/beta-1 (Homo sapiens); experiment: Inhibition of FITC-LDV peptide binding to VLA4 in human U937 deltaST cells at 10 to 50 uM by FACScan flow cytometry; type: cell-based

Chain of Ras-related protein Rab-7a (Homo sapiens) (P51149 whole entry): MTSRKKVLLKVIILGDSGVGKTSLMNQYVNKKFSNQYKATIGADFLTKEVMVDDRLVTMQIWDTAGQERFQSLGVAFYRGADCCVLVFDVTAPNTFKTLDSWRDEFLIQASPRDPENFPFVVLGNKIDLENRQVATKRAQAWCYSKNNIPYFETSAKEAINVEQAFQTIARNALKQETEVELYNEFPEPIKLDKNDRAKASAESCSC

## Nc1nc2c(ncn2[C@@H]2O[C@H](COP(=O)(O)OP(=O)(O)O)[C@@H](O)[C@H]2O)c(=O)[nH]1
[1]
  inhibition: Active

## CC1(C)Cc2c(sc(NC(=S)NC(=O)c3ccc(F)cc3)c2C(=O)O)CO1
[2]
  Activity: 100%

## CC1(C)Cc2c(sc(NC(=S)NC(=O)c3ccccc3)c2C(=O)O)CO1
[3]
  inhibition: Active
[4]
  Stability: Stable

## Nc1nc2c(ncn2[C@@H]2O[C@H](COP(=O)(O)OP(=O)(O)OP(=O)(O)O)[C@@H](O)[C@H]2O)c(=O)[nH]1
[1]
  inhibition: Active

## CC1(C)Cc2c(sc(NC(=O)NC(=O)c3ccccc3)c2C(=O)O)CO1
[5]
  viability at 24 h, 100 µM: 98%
[6]
  inhibition: Active

## CC1Cc2c(sc(NC(=S)NC(=O)c3ccccc3)c2C(=O)O)CO1 (centres undefined)
[7]
  Activity: 56%
[5]
  viability at 24 h, 100 µM: 94%
[2]
  Activity: 91%

## O=C(NC(=S)Nc1sc2c(c1C(=O)O)CCOC2)c1ccccc1
[8]
  inhibition: Active
[7]
  Activity: 45%
[5]
  viability at 24 h, 100 µM: 92%
[2]
  Activity: 91%
